# Assay results reported in patent US9023852B2, “1, 2, 4-thiadiazol-5-ylpiperazine derivatives useful in the treatment of neurodegenerative diseases” (Remynd NV, priority 2011, dated 2015).
# System: M17—3TAU(P301L) cells
# Experiment: Neuroblastoma tauopathy model: inhibition of TAU-induced cytotoxicity (LDH)
# Type: cell-based
# Details: Homo sapiens, 168 h; inhibition of TAU-induced toxicity (LDH), 7 days differentiation with retinoic acid
# Summary of the method: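 BE-M17 neuroblastoma cells stably expressing human TAU-P301L, differentiated with RA (2.5 μM in added medium) for 7 days at 37 °C with compounds at a range of concentrations. Cytotoxicity as supernatant LDH over total LDH (Cytotox 96); EC50 from dose-dependent inhibition curve.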
row,SMILES,EC50 [nM]
1,"Fc1ccc(-c2nsc(N3CCN(CCc4ccc(C(F)(F)F)cc4)CC3)n2)cc1F [Example 146, 1-[3-(3,4-Difluoro-phenyl)-[1,2,4]thiadiazol-5-yl]-4-[2-(4-trifluoromethyl-phenyl)-ethyl]-piperazine]",60.1
2,"N#Cc1ccc(-c2nsc(N3CCN(CCc4ccc(C(F)(F)F)cc4)CC3)n2)cc1 [Example 147, 4-(5-{4-[2-(4-Trifluoromethyl-phenyl)-ethyl]-piperazin-1-yl}-[1,2,4]thiadiazol-3-yl)-benzonitrile]",176
3,"Cc1ccc(-c2nsc(N3CCN(CCc4ccc(F)c(F)c4)CC3)n2)cn1 [Example 148, 1-[2-(3,4-Difluoro-phenyl)-ethyl]-4-[3-(6-methyl-pyridin-3-yl)-[1,2,4]thiadiazol-5-yl]-piperazine]",67.5
4,"FC(F)(F)c1cccc(CCN2CCN(c3nc(-c4cncc(Cl)c4)ns3)CC2)c1 [Example 149, 1-[3-(5-Chloro-pyridin-3-yl)-[1,2,4]thiadiazol-5-yl]-4-[2-(3-trifluoromethyl-phenyl)-ethyl]-piperazine]",3
5,"Cc1ccc(-c2nsc(N3CCN(Cc4ccccc4C)CC3)n2)cn1 [Example 150, 1-(2-Methyl-benzyl)-4-[3-(6-methyl-pyridin-3-yl)-[1,2,4]thiadiazol-5-yl]-piperazine]",185
6,"Cc1ccccc1CN1CCN(c2nc(-c3cncc(Cl)c3)ns2)CC1 [Example 151, 1-[3-(5-Chloro-pyridin-3-yl)-[1,2,4]thiadiazol-5-yl]-4-(2-methyl-benzyl)-piperazine]",8.2
7,"FC(F)(F)c1ccc(CCN2CCN(c3nc(-c4cncc(Cl)c4)ns3)CC2)cc1 [Example 152, 1-[3-(5-Chloro-pyridin-3-yl)-[1,2,4]thiadiazol-5-yl]-4-[2-(4-trifluoromethyl-phenyl)-ethyl]-piperazine]",215
8,"Fc1ccc(-c2nsc(N3CCN(CCC4CCCCC4)CC3)n2)cc1F [Example 153, 1-(2-Cyclohexyl-ethyl)-4-[3-(3,4-difluoro-phenyl)-[1,2,4]thiadiazol-5-yl]-piperazine]",5.9
9,"Fc1cccc(-c2nsc(N3CCN(CCC4CCCCC4)CC3)n2)c1 [Example 154, 1-(2-Cyclohexyl-ethyl)-4-[3-(3-fluoro-phenyl)[1,2,4]thiadiazol-5-yl]-piperazine]",17
10,"Cc1ccc(-c2nsc(N3CCN(CCCc4ccccc4)CC3)n2)cc1 [Example 155, 5-(4-(3-phenylpropyl)piperazin-1-yl)-3-(p-tolyl)-1,2,4-thiadiazole]",976
11,"Fc1cccc(-c2nsc(N3CCN(CCc4ccc(F)c(F)c4)CC3)n2)c1 [Example 156, 5-(4-(3,4-difluorophenethyl)piperazin-1-yl)-3-(3-fluorophenyl)-1,2,4-thiadiazole]",11.9
12,"Fc1ccc(CCN2CCN(c3nc(-c4cc(Cl)ccn4)ns3)CC2)cc1F [Example 157, 3-(4-chloropyridin-2-yl)-5-(4-(3,4-difluorophenethyl)piperazin-1-yl)-1,2,4-thiadiazole]",29
13,"Fc1ccc(-c2nsc(N3CCN(CCc4cccc(C(F)(F)F)c4)CC3)n2)cc1F [Example 158, 3-(3,4-difluorophenyl)-5-(4-(3-(trifluoromethyl)phenethyl)piperazin-1-yl)-1,2,4-thiadiazole]",998
14,"FC(F)(F)c1cccc(CCN2CCN(c3nc(-c4cc(Cl)ccn4)ns3)CC2)c1 [Example 159, 3-(4-chloropyridin-2-yl)-5-(4-(3-(trifluoromethyl)phenethyl)piperazin-1-yl)-1,2,4-thiadiazole]",119
15,"Fc1ccc(CCN2CCN(c3nc(-c4cncc(Cl)c4)ns3)CC2)cc1F [Example 160, 3-(5-chloropyridin-3-yl)-5-(4-(3,4-difluorophenethyl)piperazin-1-yl)-1,2,4-thiadiazole]",0.4
16,"Clc1ccc(-c2nsc(N3CCN(CCC4CCCCC4)CC3)n2)cc1 [Example 161, 3-(4-chlorophenyl)-5-(4-(2-cyclohexylethyl)piperazin-1-yl)-1,2,4-thiadiazole]",39.6
17,"Clc1cccc(-c2nsc(N3CCN(CCC4CCCCC4)CC3)n2)c1 [Example 162, 3-(3-chlorophenyl)-5-(4-(2-cyclohexylethyl)piperazin-1-yl)-1,2,4-thiadiazole]",3.3
18,"Clc1cncc(-c2nsc(N3CCN(CCN4CCCCC4)CC3)n2)c1 [Example 163, 3-(5-chloropyridin-3-yl)-5-(4-(2-(piperidin-1-yl)ethyl)piperazin-1-yl)-1,2,4-thiadiazole]",13
19,"Fc1ccc(-c2nsc(N3CCN(CCC4CCOCC4)CC3)n2)cc1F [Example 164, 3-(3,4-difluorophenyl)-5-(4-(2-(tetrahydro-2H-pyran-4-yl)ethyl)piperazin-1-yl)-1,2,4-thiadiazole]",3.4
20,"Clc1cccc(-c2nsc(N3CCN(CCC4CCOCC4)CC3)n2)c1 [Example 165, 3-(3-chlorophenyl)-5-(4-(2-(tetrahydro-2H-pyran-4-yl)ethyl)piperazin-1-yl)-1,2,4-thiadiazole]",1.1
21,"Clc1cncc(-c2nsc(N3CCN(CCC4CCOCC4)CC3)n2)c1 [Example 166, 3-(5-chloropyridin-3-yl)-5-(4-(2-(tetrahydro-2H-pyran-4-yl)ethyl)piperazin-1-yl)-1,2,4-thiadiazole]",0.7
22,"Clc1ccc(-c2nsc(N3CCN(CCC4CCOCC4)CC3)n2)cc1 [Example 167, 3-(4-chlorophenyl)-5-(4-(2-(tetrahydro-2H-pyran-4-yl)ethyl)piperazin-1-yl)-1,2,4-thiadiazole]",5.9
23,"COc1cc(CCN2CCN(c3nc(-c4ccnc(Cl)c4)ns3)CC2)ccn1 [Example 168, 3-(2-chloropyridin-4-yl)-5-(4-(2-(2-methoxypyridin-4-yl)ethyl)piperazin-1-yl)-1,2,4-thiadiazole]",1.5
24,"Clc1ccc(CCN2CCN(c3nc(-c4ccnc(Cl)c4)ns3)CC2)cc1 [Example 169, 5-(4-(4-chlorophenethyl)piperazin-1-yl)-3-(2-chloropyridin-4-yl)-1,2,4-thiadiazole]",10.4
25,"Clc1cc(-c2nsc(N3CCN(CCc4ccccc4)CC3)n2)ccn1 [Example 170, 3-(2-chloropyridin-4-yl)-5-(4-phenethylpiperazin-1-yl)-1,2,4-thiadiazole]",0.7
26,"Cc1cc(-c2nsc(N3CCN(CCc4ccccc4)CC3)n2)ccn1 [Example 171, 3-(2-methylpyridin-4-yl)-5-(4-phenethylpiperazin-1-yl)-1,2,4-thiadiazole]",2.4
27,"COc1cc(CCN2CCN(c3nc(-c4ccnc(C)c4)ns3)CC2)ccn1 [Example 172, 5-(4-(2-(2-methoxypyridin-4-yl)ethyl)piperazin-1-yl)-3-(2-methylpyridin-4-yl)-1,2,4-thiadiazole]",14.4
28,"Cc1cc(-c2nsc(N3CCN(CCc4ccccc4)CC3)n2)cnn1 [Example 173, 3-(6-methylpyridazin-4-yl)-5-(4-phenethylpiperazin-1-yl)-1,2,4-thiadiazole]",2.9
29,"Cc1cc(-c2nsc(N3CCN(CCc4ccc(F)cc4)CC3)n2)cnn1 [Example 174, 5-(4-(4-fluorophenethyl)piperazin-1-yl)-3-(6-methylpyridazin-4-yl)-1,2,4-thiadiazole]",12.6
30,"Cc1cc(-c2nsc(N3CCN(CCc4ccc(F)c(F)c4)CC3)n2)cnn1 [Example 175, 5-(4-(3,4-difluorophenethyl)piperazin-1-yl)-3-(6-methylpyridazin-4-yl)-1,2,4-thiadiazole]",13.4
